From patent US8183380B2, “2-aminoquinolines” (Hoffmann-La Roche Inc., priority 2008, dated 2012)

Target: T1, recombinant human 5-HT5A receptor (Homo sapiens, UniProt P47898)
T1 construct: expressed in transfected cells; host or cells: HEK-EBNA (Human Embryonic Kidney-EBNA) cells, transient cDNA expression; membranes
Experiment: [3H]LSD radioligand binding assay
Conditions: [3H]LSD (approximately 1 nM); membranes from transiently expressed 5-HT5A receptors in HEK-EBNA cells; Ki from IC50 by Cheng-Prussoff equation
Procedure: A [^3H]LSD radioligand binding assay was used to determine the affinity of the compounds for the recombinant human 5-HT5A receptor, in membranes from transiently (cDNA) expressed 5-HT5A receptors in Human Embryonic Kidney-EBNA (HEK-EBNA) cells. Assay buffer consisted of Tris (50 mM) buffer containing 1 mM EGTA, 10 mM MgCl2 (pH 7.4) and 10 μM pargyline. The binding assay was carried out in 96-well-plates in the presence of [^3H]LSD (approximately 1 nM), approximately 2 μg/well of membrane protein, and 0.5 mg of Ysi-poly-1-lysine SPA beads in a final volume of 200 μl of buffer. Non-specific binding was defined using methiothepin 2 μM. Compounds were tested at 10 concentrations. All assays were conducted in duplicate and repeated at least two times. Assay plates were incubated for 120 min at room temperature before centrifugation. Bound ligand was determined using a Packard Topcount scintillation counter. IC50 values were calculated using a non-linear curve fitting program and Ki values calculated using the Cheng-Prussoff equation.

T1 sequence (P47898 whole entry): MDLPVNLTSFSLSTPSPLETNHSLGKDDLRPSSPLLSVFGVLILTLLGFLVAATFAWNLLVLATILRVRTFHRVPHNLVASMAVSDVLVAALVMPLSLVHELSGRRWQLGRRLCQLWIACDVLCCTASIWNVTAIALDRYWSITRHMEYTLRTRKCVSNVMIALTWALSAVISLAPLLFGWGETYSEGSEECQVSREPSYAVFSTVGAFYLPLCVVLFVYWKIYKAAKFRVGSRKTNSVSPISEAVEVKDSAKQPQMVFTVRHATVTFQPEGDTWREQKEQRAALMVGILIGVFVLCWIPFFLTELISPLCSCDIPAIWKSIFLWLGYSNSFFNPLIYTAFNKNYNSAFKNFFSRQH

| Ki | Compound |
| --- | --- |
| 8.9 nM | O=S(=O)(Nc1ccc2nc(N[C@@H]3CCc4ccccc43)ccc2c1)N1CCC(F)(F)C1 [Example 74, 3,3-Difluoro-pyrrolidine-1-sulfonic acid [2-((R)-indan-1-ylamino)-quinolin-6-yl]-amide] |
| 9.9 nM | O=S(=O)(Nc1ccc2nc(N[C@@H]3CCc4ccccc43)ccc2c1)N1CCOCC1 [Example 76, Morpholine-4-sulfonic acid [2-((R)-indan-1-ylamino)-quinolin-6-yl]-amide] |
| 7 nM | O=S(=O)(Nc1ccc2nc(N[C@@H]3CCc4ccccc43)ccc2c1)N1CCSCC1 [Example 78, Thiomorpholine-4-sulfonic acid [2-((R)-indan-1-ylamino)-quinolin-6-yl]-amide] |
| 22.2 nM | O=S(=O)(Nc1ccc2nc(N[C@@H]3CCc4ccccc43)ccc2c1)N1CCC2(CC1)OCCO2 [Example 82, 1,4-Dioxa-8-aza-spiro[4.5]decane-8-sulfonic acid [2-((R)-indan-1-ylamino)-quinolin-6-yl]-amide] |
| 9.3 nM | CN(C1CC1)S(=O)(=O)Nc1ccc2nc(N[C@@H]3CCc4ccccc43)ccc2c1 [Example 85, N-cyclopropyl-N′-{2-[(1R)-2,3-dihydro-1H-inden-1-ylamino]quinolin-6-yl}-N-methylsulfamide] |
| 2.5 nM | O=S(=O)(Nc1ccc2nc(N[C@@H]3CCc4ccccc43)ccc2c1)N1C[C@@H]2C[C@H]1CO2 [Example 88, (1S,4S)-2-Oxa-5-aza-bicyclo[2.2.1]heptane-5-sulfonic acid [2-((R)-indan-1-ylamino)-quinolin-6-yl]-amide] |
| 6.8 nM | COc1cccc2c1C(Nc1ccc3cc(NS(=O)(=O)N4C[C@@H]5C[C@H]4CO5)ccc3n1)CCC2 (stereo partly drawn) [Example 91, (1S,4S)-2-Oxa-5-aza-bicyclo[2.2.1]heptane-5-sulfonic acid [2-(8-methoxy-1,2,3,4-tetrahydro-naphthalen-1-ylamino)-quinolin-6-yl]-amide] |
| 2.9 nM | O=C(Nc1ccc2nc(N[C@@H]3CCc4ccccc43)ccc2c1)NC1CCN(CCF)CC1 [Example 97, 1-[1-(2-Fluoro-ethyl)-piperidin-4-yl]-3-[2-((R)-indan-1-ylamino)-quinolin-6-yl]-urea] |
| 4.2 nM | N#CCN1CCC(NC(=O)Nc2ccc3nc(N[C@@H]4CCc5ccccc54)ccc3c2)CC1 [Example 133, 1-(1-Cyanomethyl-piperidin-4-yl)-3-[2-((R)-indan-1-ylamino)-quinolin-6-yl]-urea] |
| 5.7 nM | CS(=O)(=O)CCN1CCC(NC(=O)Nc2ccc3nc(N[C@@H]4CCc5ccccc54)ccc3c2)CC1 [Example 135, 1-[2-((R)-Indan-1-ylamino)-quinolin-6-yl]-3-[1-(2-methanesulfonyl-ethyl)-piperidin-4-yl]-urea] |
| 6.5 nM | CN(C)C(=O)CN1CCC(NC(=O)Nc2ccc3nc(N[C@@H]4CCc5ccccc54)ccc3c2)CC1 [Example 136, 2-(4-{3-[2-((R)-Indan-1-ylamino)-quinolin-6-yl]-ureido}-piperidin-1-yl)-N,N-dimethylacetamide] |
| 1.7 nM | O=C(Nc1ccc2nc(N[C@@H]3CCc4ccccc43)ccc2c1)NC1CCN(CCO)CC1 [Example 137, 1-[1-(2-Hydroxy-ethyl)-piperidin-4-yl]-3-[2-((R)-indan-1-ylamino)-quinolin-6-yl]-urea] |
| 8 nM | CC(C)OC(=O)Nc1ccc2nc(N[C@@H]3CCc4ccccc43)ccc2c1 [Example 138, [2-((R)-Indan-1-ylamino)-quinolin-6-yl]-carbamic acid isopropyl ester] |
| 2.1 nM | COc1cccc2c1C(Nc1ccc3cc(NS(=O)(=O)N4C[C@@H]5C[C@H]4CO5)ccc3n1)CC2 (stereo partly drawn) [Example 148, (1S,4S)-2-Oxa-5-aza-bicyclo[2.2.1]heptane-5-sulfonic acid [2-(7-methoxy-indan-1-ylamino)-quinolin-6-yl]-amide] |
| 14.8 nM | NC(=S)Nc1ccc2nc(N[C@@H]3CCc4ccccc43)ccc2c1 [Example 149, [2-((R)-Indan-1-ylamino)-quinolin-6-yl]-thiourea] |
| 33.7 nM | CC(C)N=C(Nc1ccc2nc(N[C@@H]3CCc4ccccc43)ccc2c1)NC(C)C [Example 166, N-[2-((R)-Indan-1-ylamino)-quinolin-6-yl]-N′,N″-diisopropyl-guanidine] |
| 6.7 nM | CN1CCN(CC(=O)Nc2ccc3nc(N[C@@H]4CCc5ccccc54)ccc3c2)CC1 [Example 210, N-[2-((R)-Indan-1-ylamino)-quinolin-6-yl]-2-(4-methyl-piperazin-1-yl)-acetamide] |
| 8.3 nM | (2-Methoxy-ethyl)-methyl-sulfonic acid [2-((R)-indan-1-ylamino)quinolin-6-yl]-amide [Example 75] |

| Compound | Ki |
| --- | --- |
| O=C(Nc1ccc2nc(N[C@@H]3CCc4ccccc43)ccc2c1)N[C@@H]1C[C@H]2CC[C@@H](C1)N2C1CC1 [Example 99, 1-((3-exo)-8-Cyclopropyl-8-aza-bicyclo[3.2.1]oct-3-yl)-3-[2-((R)-indan-1-ylamino)-quinolin-6-yl]-urea] | 3.9 nM |
| CN1[C@@H]2CC[C@H]1C[C@H](NC(=O)Nc1ccc3nc(N[C@@H]4CCc5ccccc54)ccc3c1)C2 [Example 101, 1-[2-((R)-Indan-1-ylamino)-quinolin-6-yl]-3-((3-exo)-8-methyl-8-aza-bicyclo[3.2.1]oct-3-yl)-urea] | 3.7 nM |
| O=C(Nc1ccc2nc(N[C@@H]3CCc4ccccc43)ccc2c1)N[C@@H]1C[C@H]2CCC[C@@H](C1)N2C1CC1 [Example 110, 1-((3-exo)-9-Cyclopropyl-9-aza-bicyclo[3.3.1]non-3-yl)-3-[2-((R)-indan-1-ylamino)-quinolin-6-yl]-urea] | 7.2 nM |
| CC(C)N1C2CCCC1CC(NC(=O)Nc1ccc3nc(NC4CCc5ccccc54)ccc3c1)C2 [Example 168, 1-[2-((R)-Indan-1-ylamino)-quinolin-6-yl]-3-((3-exo)-9-isopropyl-9-aza-bicyclo[3.3.1]non-3-yl)-urea] | 7.8 nM |
| CC(C)N1[C@@H]2CC[C@H]1C[C@H](NC(=O)Nc1ccc3nc(N[C@@H]4CCc5ccccc54)ccc3c1)C2 [Example 170, 1-[2-((R)-Indan-1-ylamino)-quinolin-6-yl]-3-((3-exo)-8-isopropyl-8-aza-bicyclo[3.2.1]oct-3-yl)-urea] | 7.1 nM |
